Paper PMC10971446 (Marine Drugs, 2024)
Where a SMILES comes first, the peptide text is derived from it. Bridges are numbered along the chain shown (N, C = ends). [ ]: non-standard residue; d: D form. pGlu = O=C1CC[C@@H](C(=O)O)N1

Key:
[1] = system: ACh+PNU-responsive mouse DRG neurons (α7 nAChR); assay type: cell-based
[2] = system: mouse DRG neurons; conditions: cited from earlier work
[3] = target: mouse α6/α3β4 nAChR (Mus musculus, UniProt Q8R493+Q8R4G9+Q9R0W9); assay type: cell-based
[4] = system: α7 nAChR; conditions: cited from earlier work

Chain of mouse α6/α3β4 nAChR (Q8R493 whole entry, looked up): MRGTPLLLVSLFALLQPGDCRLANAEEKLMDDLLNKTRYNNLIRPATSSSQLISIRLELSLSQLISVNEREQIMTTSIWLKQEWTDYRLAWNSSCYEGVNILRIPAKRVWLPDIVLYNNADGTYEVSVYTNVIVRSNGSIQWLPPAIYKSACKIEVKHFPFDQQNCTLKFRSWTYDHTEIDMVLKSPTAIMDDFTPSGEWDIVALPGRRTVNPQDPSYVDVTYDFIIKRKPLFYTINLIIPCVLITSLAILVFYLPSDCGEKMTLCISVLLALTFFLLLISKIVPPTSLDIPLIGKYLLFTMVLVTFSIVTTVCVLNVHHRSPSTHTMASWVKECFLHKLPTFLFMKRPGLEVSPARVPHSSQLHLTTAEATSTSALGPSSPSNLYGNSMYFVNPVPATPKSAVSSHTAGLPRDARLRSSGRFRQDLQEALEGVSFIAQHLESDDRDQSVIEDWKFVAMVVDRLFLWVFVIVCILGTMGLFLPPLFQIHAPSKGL
Chain of mouse α6/α3β4 nAChR (Q8R4G9 whole entry, looked up): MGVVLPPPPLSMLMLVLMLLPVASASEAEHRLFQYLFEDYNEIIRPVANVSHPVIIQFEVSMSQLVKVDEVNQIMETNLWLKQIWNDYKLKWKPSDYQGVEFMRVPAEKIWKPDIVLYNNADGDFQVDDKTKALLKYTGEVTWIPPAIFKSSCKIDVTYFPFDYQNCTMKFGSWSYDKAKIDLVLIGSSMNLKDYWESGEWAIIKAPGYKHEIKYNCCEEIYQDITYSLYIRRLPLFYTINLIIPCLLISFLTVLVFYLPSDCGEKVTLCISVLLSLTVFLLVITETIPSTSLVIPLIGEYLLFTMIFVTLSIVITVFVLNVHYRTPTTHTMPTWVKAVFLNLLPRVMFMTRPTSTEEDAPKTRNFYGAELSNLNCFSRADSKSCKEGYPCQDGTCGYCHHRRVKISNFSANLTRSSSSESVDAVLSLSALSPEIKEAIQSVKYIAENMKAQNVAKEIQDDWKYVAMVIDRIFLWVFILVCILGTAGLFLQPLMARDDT
Chain of mouse α6/α3β4 nAChR (Q9R0W9 whole entry, looked up): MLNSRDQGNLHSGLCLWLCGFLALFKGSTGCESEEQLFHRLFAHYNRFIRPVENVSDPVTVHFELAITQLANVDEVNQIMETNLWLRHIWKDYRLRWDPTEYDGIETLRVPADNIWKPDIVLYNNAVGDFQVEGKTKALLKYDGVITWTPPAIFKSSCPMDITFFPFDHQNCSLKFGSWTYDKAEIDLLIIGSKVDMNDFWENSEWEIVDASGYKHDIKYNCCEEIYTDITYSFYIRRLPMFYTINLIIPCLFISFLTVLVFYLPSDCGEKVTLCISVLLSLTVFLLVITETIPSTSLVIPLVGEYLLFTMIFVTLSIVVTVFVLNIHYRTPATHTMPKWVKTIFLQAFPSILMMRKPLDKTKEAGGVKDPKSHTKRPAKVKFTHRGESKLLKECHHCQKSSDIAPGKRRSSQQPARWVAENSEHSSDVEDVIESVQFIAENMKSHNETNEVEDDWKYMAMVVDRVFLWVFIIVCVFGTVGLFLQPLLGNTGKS

Compound	calcium response to ACh alone or ACh+PNU in α7-expressing DRG neurons [1]	calcium response of DRG neurons to agonist [2]	loss of potency on α6/α3β4 compared to αCtx-PeIA [3]	α7 modulation [4]
CC(=O)OCC[N+](C)(C)C [ACh, acetylcholine]	did not cause calcium influx in these cells	a subset of mouse DRG neurons responds to serial application of 1 mM acetylcholine (ACh) with elevation of intracellular calcium		
CC(C)C[C@@H]1NC(=O)[C@H](CCC(=O)O)NC(=O)[C@@H]2CCCN2C(=O)[C@H](Cc2c[nH]cn2)NC(=O)[C@H](CC(N)=O)NC(=O)[C@H](C(C)C)NC(=O)[C@H](CO)NC(=O)[C@@H]2CSSC[C@H](NC(=O)CNC(=O)[C@@H]3CCC(=O)N3)C(=O)N[C@@H](CSSC[C@@H](C(=O)N[C@@H](Cc3c[nH]c4ccccc34)C(=O)O)NC1=O)C(=O)N[C@@H](CO)C(=O)N[C@@H](Cc1c[nH]cn1)C(=O)N1CCC[C@H]1C(=O)N[C@@H](C)C(=O)N2 [αCtx-AtIA] ([pGlu]GCCSHPACSVNHPELCW-OH; disulfide 3-9, 4-17)			~ 5 fold	
PNU-120596	co-application of ACh and PNU uncovered a calcium response			α7 positive allosteric modulator
